{"source": "patent US5700819A", "about": "“2-substituted benzothiazole derivatives and prophylactic and therapeutic agents for the treatment of diabetic complications” (Grelan Pharmaceutical Co., Ltd., priority 1994, dated 1997)", "key": {"Aldose reductase": {"target": "T1, Aldose reductase (Sus scrofa, UniProt P80276)", "T1 construct": "Aldose reductase samples were prepared from porcine lens; from tissue; host or cells: porcine lens", "assay": "Aldose Reductase Inhibition", "type": "biochemical", "conditions": "porcine lens aldose reductase; DL-glyceraldehyde 3 mM, NADPH 0.1 mM, pH 6.2, 37° C.", "description": "Aldose reductase samples were prepared from porcine lens according the method by S. Hayman et al., (Journal of Biological Chemistry, 240, p. 877-882 (1965)). In brief, lens of porcine eyes were frozen (-80° C.) until employed. These lenses were homogenized with distilled water and then centrifuged at 10,000×g for 15 minutes. The supernatant was fractionated with 0 to 40% ammonium sulfate and centrifuged at 10,000×g for 10 minutes. The resultant supernatant was dialyzed overnight against 0.05M sodium chloride. The dialyzed solution was used as an aldose reductase sample. (Assay of Enzymatic Activity) Aldose reductase activity was assayed according to the aforementioned method by S. Hayman et al. In brief, to 200 μl of 40 mM phosphate buffer (pH 6.2) containing lithium sulfate, 0.4M (final concentration); NADPH (reduced nicotinamide adenine dinucleotide phosphate), 0.1 mM (final concentration); and DL-glyceraldehyde as a substrate, 3 mM (final concentration) was added 25 μl of the aldose reductase solution obtained by the aforementioned method and 25 μl of 1% DMSO solutions containing a sample inhibitor compound with different concentrations. The mixtures were incubated at 37° C. for 2 minutes for reaction and changes in the absorbance at 340 nm were read using an auto-analyzer (Hitachi Corporation, Model 7070, Japan). The change in the absorbance of a mixed solution including 1% DMSO instead of sample compounds was expresses as 100%. […] IC50 (M) means the concentration of the compounds, required for 50% inhibition of aldose reductase activity."}, "Normal ICR mice": {"system": "Normal ICR mice", "assay": "Safety Study", "type": "in vivo", "conditions": "1000 mg/kg oral, single dose; observed 7 days; male ICR mice, 5/group", "description": "The safety of the compounds of the present invention was confirmed according to the following experimental procedure.\nNormal ICR mice (male, 7-week-old, 5 mice/group), fasted for 18 hours, received orally the compound each of Examples 1-ii), 5-ii), 19-ii), 21, 22-ii) and 23-ii) suspended in 0.5% carboxymethyl cellulose at a dose of 1000 mg/kg. Control groups received only 0.5% carboxymethyl cellulose orally. […] The mice were fed with diet and water ad libitum during the experiment."}, "[1]": {"system": "sorbitol accumulation in tissues (sciatic nerve, lens) of experimental diabetic rats", "assay": "Inhibitory Effect on Sorbitol Accumulation in the Tissues of Experimental Diabetic Rats (Therapeutic Effect)", "type": "in vivo, Sprague-Dawley rats", "conditions": "5 days, from 7 days after streptozotocin, control = 100%, ** P < 0.01 (Tukey); for Sorbitol Accumulation, Nerve: sciatic nerve", "description": "4) Inhibitory Effect on Sorbitol Accumulation in the Tissues of Experimental Diabetic Rats (Therapeutic Effect)\nSprague-Dawley rats (male, 6-week-old, 5 to 6 rats/group), fasted for 18 hours, were made diabetic by injecting streptozotocin (Sigma) at a dose of 60 mg/kg body weight into the tail vein thereof. From 7 days after the streptozotocin injection, a sample compound suspended in 0.5% carboxymethyl cellulose was administered orally to the rats at a dose between 1 and 10 mg/kg once daily for 5 consecutive days. The rats were fed with diet and water ad libitum during the experiment. Three hours after the final administration, the sorbitol contents in the tissues (sciatic nerve, lens) was assayed enzymatically using SDH (sorbitol dehydrogenase) and NAD (β-nicotinamide adenine dinucleotide) according to the method by H. U. Bergmeyer et al. (Methods of Enzymatic Analysis, 3, p. 1323-1330 (1974)). The sorbitol contents in control groups to which 0.5% carboxymethyl cellulose was administered instead of sample compounds is expressed as 100%."}, "[2]": {"system": "sorbitol accumulation in tissues (sciatic nerve, lens) of experimental diabetic rats", "assay": "Inhibitory Effect on Sorbitol Accumulation in the Tissues of Experimental Diabetic Rats (Prophylactic effect)", "type": "in vivo, Sprague-Dawley rats", "conditions": "control = 100%, ** P < 0.01 (Tukey); for Sorbitol Accumulation, Nerve: sciatic nerve", "description": "2) Inhibitory Effect on Sorbitol Accumulation in the Tissues of Experimental Diabetic Rats (Prophylactic effect)\nSprague-Dawley rats (male, 6-week-old, 5-6 rats/group), fasted for 18 hours, were made diabetic by a single intravenous (tail vein) injection of 60 mg/kg body weight of streptozotocin (Sigma). Four, eight and twenty four hours after the injection of streptozotocin, respectively, a sample compound suspended in 0.5% carboxymethyl cellulose was administered orally to the rats at a dose of 10 or 30 mg/kg. The rats were fed with diet and water ad libitum during the experiment. Three hours after the final administration, the sorbitol contents in the tissues (sciatic nerve, lens) was assayed enzymatically using SDH (sorbitol dehydrogenase) and NAD (β-nicotinamide adenine dinucleotide) according to the method by H. U. Bergmeyer et al. (Methods of Enzymatic Analysis, 3, p. 1323-1330 (1974)). The sorbitol contents in control groups to which 0.5% carboxymethyl cellulose was administered instead of sample compounds is expressed as 100%."}, "[3]": {"conditions": "30 mg/kg oral, 4, 8 and 24 h after streptozotocin"}, "[4]": {"conditions": "10 mg/kg oral, 4, 8 and 24 h after streptozotocin"}}, "note": "pIC50: −log10 of the molar value."}
{"smiles": "O=C(O)CCCCSc1nc2c(F)c(F)cc(F)c2s1", "note": "[Example 15-ii), 5-(4,5,7-trifluorobenzothiazol-2-ylthio)pentanoic acid]", "values": [{"measurement": "pIC50", "setting": "Aldose reductase", "value": 7.85}]}
{"smiles": "Cc1cc(CC(=O)O)cc(Cc2nc3c(F)c(F)ccc3s2)c1", "note": "[23-ii), 3-[(4,5-difluorobenzothiazol-2-yl)methyl]-5-methylphenylacetic acid]", "values": [{"measurement": "mortality", "setting": "Normal ICR mice", "value": "No animal died"}]}
{"smiles": "O=C(O)CN(Cc1ccccc1)C(=O)CCc1nc2c(F)c(F)cc(F)c2s1", "note": "[Example 5-ii), N-benzyl-N-[3-(4,5,7-trifluorobenzothiazol-2-yl)propionyl]glycine]", "values": [{"measurement": "pIC50", "setting": "Aldose reductase", "value": 8.01}]}
{"smiles": "O=C(O)CN(Cc1ccccc1)C(=S)CCc1nc2c(F)c(F)cc(F)c2s1", "note": "[Example 8-ii), N-benzyl-N-[3-(4,5,7-trifluorobenzothiazol-2-yl)-1-thioxopropyl]glycine]", "values": [{"measurement": "pIC50", "setting": "Aldose reductase", "value": 7.64}]}
{"smiles": "O=C(O)Cc1cc(Br)cc(Cc2nc3c(F)c(F)cc(F)c3s2)c1", "note": "[Example 28-ii), 3-[(4,5,7-trifluorobenzothiazol-2-yl)methyl]-5-bromophenylacetic acid]", "values": [{"measurement": "pIC50", "setting": "Aldose reductase", "value": 8.03}]}
{"smiles": "O=C(O)Cc1cccc(Cc2nc3c(F)c(F)cc(F)c3s2)c1Cl", "note": "[Example 25-ii), 3-[(4,5,7-trifluorobenzothiazol-2-yl)methyl]-2-chlorophenylacetic acid]", "values": [{"measurement": "Sorbitol Accumulation, Lens", "setting": "[1]; 1 mg/kg oral once daily", "value": 47, "unit": "%"}, {"measurement": "Sorbitol Accumulation, Nerve", "setting": "[1]; 1 mg/kg oral once daily", "value": 0, "unit": "%"}]}
{"smiles": "O=C(O)CN(C(=O)CCc1nc2c(F)c(F)cc(F)c2s1)c1ccccc1", "note": "[Example 4-ii), N-[3-(4,5,7-trifluorobenzothiazol-2-yl)propionyl]-N-phenylglycine]", "values": [{"measurement": "pIC50", "setting": "Aldose reductase", "value": 8.08}, {"measurement": "Sorbitol Accumulation, Lens", "setting": "[2]; [3]", "value": 20, "unit": "%"}, {"measurement": "Sorbitol Accumulation, Nerve", "setting": "[2]; [3]", "value": 46, "unit": "%"}]}
{"smiles": "O=C(O)CN(C(=S)CCc1nc2c(F)c(F)cc(F)c2s1)c1ccccc1", "note": "[Example 32-ii), N-[3-(4,5,7-trifluorobenzothiazol-2-yl)-1-thioxopropionyl]-N-phenylglycine]", "values": [{"measurement": "pIC50", "setting": "Aldose reductase", "value": 8.08}]}
{"smiles": "O=C(O)Cc1ccccc1Cc1nc2c(F)c(F)cc(F)c2s1", "note": "[Example 20-ii), 2-[(4,5,7-trifluorobenzothiazol-2-yl)methyl]phenylacetic acid]", "values": [{"measurement": "pIC50", "setting": "Aldose reductase", "value": 7.72}, {"measurement": "Sorbitol Accumulation, Lens", "setting": "[2]; [4]", "value": 63, "unit": "%"}, {"measurement": "Sorbitol Accumulation, Nerve", "setting": "[2]; [4]", "value": 15, "unit": "%"}]}
{"smiles": "O=C(O)Cc1cc(Cc2nc3c(F)c(F)cc(F)c3s2)cc(C(=O)O)c1", "note": "[Example 30-ii), 3-[(4,5,7-trifluorobenzothiazol-2-yl)methyl]-5-carboxymethylbenzoic acid]", "values": [{"measurement": "pIC50", "setting": "Aldose reductase", "value": 8.06}]}
{"smiles": "O=C(O)Cc1cccc(Cc2nc3c(Cl)c(Cl)ccc3s2)c1", "note": "[Example 19-ii), 3-[(4,5-dichlorobenzothiazol-2-yl)methyl]phenylacetic acid]", "values": [{"measurement": "pIC50", "setting": "Aldose reductase", "value": 7.92}]}
{"smiles": "O=C(O)Cc1cccc(Cc2nc3c(F)c(F)cc(F)c3s2)c1", "note": "[Example 1-ii), 3-[(4,5,7-trifluorobenzothiazol-2-yl)methyl]phenylacetic acid]", "values": [{"measurement": "pIC50", "setting": "Aldose reductase", "value": 8.18}, {"measurement": "Sorbitol Accumulation, Lens", "setting": "[2]; [3]", "value": 4, "unit": "%"}, {"measurement": "Sorbitol Accumulation, Nerve", "setting": "[2]; [3]", "value": 0, "unit": "%"}, {"measurement": "Sorbitol Accumulation, Lens", "setting": "[1]; 10 mg/kg oral once daily", "value": 68, "unit": "%"}, {"measurement": "Sorbitol Accumulation, Nerve", "setting": "[1]; 10 mg/kg oral once daily", "value": 2, "unit": "%"}]}
{"smiles": "CN(CC(=O)O)C(=O)CCc1nc2c(F)c(F)cc(F)c2s1", "note": "[Example 3-iii), N-[3-(4,5,7-trifluorobenzothiazol-2-yl)propionyl]-N-methylglycine]", "values": [{"measurement": "pIC50", "setting": "Aldose reductase", "value": 7.89}]}
{"smiles": "O=C(O)Cc1cccc(Cc2nc3c(F)c(F)ccc3s2)c1", "note": "[Example 21, 3-[(4,5-difluorobenzothiazol-2-yl)methyl]phenylacetic acid]", "values": [{"measurement": "pIC50", "setting": "Aldose reductase", "value": 8.17}, {"measurement": "Sorbitol Accumulation, Lens", "setting": "[2]; [4]", "value": 40, "unit": "%"}, {"measurement": "Sorbitol Accumulation, Nerve", "setting": "[2]; [4]", "value": 0, "unit": "%"}]}
{"smiles": "Cc1cc(CC(=O)O)cc(Cc2nc3c(F)c(F)cc(F)c3s2)c1", "note": "[Example 22-ii), 3-[(4,5,7-trifluorobenzothiazol-2-yl)methyl]-5-methylphenylacetic acid]", "values": [{"measurement": "pIC50", "setting": "Aldose reductase", "value": 8.02}, {"measurement": "Sorbitol Accumulation, Lens", "setting": "[2]; [4]", "value": 41, "unit": "%"}, {"measurement": "Sorbitol Accumulation, Nerve", "setting": "[2]; [4]", "value": 0, "unit": "%"}, {"measurement": "Sorbitol Accumulation, Lens", "setting": "[1]; 3 mg/kg oral once daily", "value": 25, "unit": "%"}, {"measurement": "Sorbitol Accumulation, Nerve", "setting": "[1]; 3 mg/kg oral once daily", "value": 2, "unit": "%"}]}
{"smiles": "CN(C)c1cc(CC(=O)O)cc(Cc2nc3c(F)c(F)cc(F)c3s2)c1", "note": "[Example 31-ii), 3-[(4,5,7-trifluorobenzothiazol-2-yl)methyl]-5-dimethylaminophenylacetic acid]", "values": [{"measurement": "pIC50", "setting": "Aldose reductase", "value": 8.17}, {"measurement": "Sorbitol Accumulation, Lens", "setting": "[1]; 3 mg/kg oral once daily", "value": 77, "unit": "%"}, {"measurement": "Sorbitol Accumulation, Nerve", "setting": "[1]; 3 mg/kg oral once daily", "value": 1, "unit": "%"}]}
{"smiles": "O=C(O)Cc1cccc(Cc2nc3c(F)c(F)ccc3s2)c1Cl", "note": "[Example 24-ii), 3-[(4,5-difluorobenzothiazol-2-yl)methyl]-2-chlorophenylacetic acid]", "values": [{"measurement": "Sorbitol Accumulation, Lens", "setting": "[1]; 10 mg/kg oral once daily", "value": 26, "unit": "%"}, {"measurement": "Sorbitol Accumulation, Nerve", "setting": "[1]; 10 mg/kg oral once daily", "value": 11, "unit": "%"}]}
